The source of these data is patent US12178842B2, “PCSK9 antagonist compounds” (MERCK SHARP & DOHME LLC, priority 2019, dated 2024).

Common to all, as to assay type: binding
In assay [1] the target is T1, PCSK9 (Homo sapiens, UniProt Q8NBP7).
T1 construct: biotin (biotinylated); purchased
In words: PCSK9 Alexa FRET Standard TR-FRET assay. The conditions noted are these: Ki calculated from IC50 and KD of AF cyclic peptide Reagent A; 0.5 nM PCSK9, 20 nM AF cyclic peptide; read-out: Alexa FRET Stdt TR-FRET. On the procedure: A solution containing 1 nM biotinylated PCSK9+2.5 nM Lance Streptavidin Europium (Strep-Eu) is made in 50 mM HEPES pH 7.4, 0.15 M NaCl, 5 mM CaCl2, 0.01% BSA, and 0.01% Surfactant P20. A separate solution containing 40 nM of the AlexaFluor tagged cyclic peptide is made in the same buffer system. An Echo is used to transfer 0.750 ul of compound to an assay plate followed by the addition of 15 ul of PCSK9+Stept-Eu and 15 ul of AF peptide. The final assay volume is 30.750 ul containing 0.5 nM PCSK9, 1.25 nM Strep-Eu, and 20 nM AF cyclic peptide. The reaction is incubated at room temperature for at least two hours prior to fluorescence measurements using an Envision Multilabel Reader. IC50 values are determined by fitting data to a sigmoidal dose-response curve using nonlinear regression. Ki is then calculated from the Ic50 and the KD of AF cyclic peptide. Counts (B-counts) of the europium-labeled PCSK9 are followed to observe if compounds are adversely PCSK9. A fall off of the B-counts likely indicates a false positive of inhibition. Data from this procedure is reported as “A=‘numerical value’ (nanomolar)”

Assay [2] addresses T1, PCSK9. Briefly: PCSK9 Alexa FRET Plus TR-FRET assay. The method, then:
A separate solution containing 1920 nM of the AlexaFluor tagged cyclic peptide is made in the same buffer system. […] The reaction is incubated at room temperature for at least two hours prior to fluorescence measurements using an Envision Multilabel Reader. IC50 values are determined by fitting data to a sigmoidal dose-response curve using nonlinear regression. Ki is then calculated from the Ic50 and the KD of AF cyclic peptide. Counts (B-counts) of the europium-labeled PCSK9 are followed to observe if compounds are adversely affecting PCSK9. A fall off of the B-counts is likely indicates a false positive of inhibition. Data from this procedure is reported as “P=‘numerical value’ (nanomolar)”
(In general: TR-FRET usually uses a lanthanide donor and a delayed reading to cut background.)

In assay [3] the target is T1, PCSK9. Briefly: PCSK9 Alexa FRET Ultra TR-FRET assay. The method, then:
A separate solution containing 1920 nM of the AlexaFluor tagged cyclic peptide is made in the same buffer system. […] The reaction is incubated at room temperature for at least two hours prior to fluorescence measurements using an Envision Multilabel Reader. IC50 values are determined by fitting data to a sigmoidal dose-response curve using nonlinear regression. Ki is then calculated from the Ic50 and the KD of AF cyclic peptide. Counts (B-counts) of the europium-labeled PCSK9 are followed to observe if compounds are adversely affecting PCSK9. A fall off of the B-counts is likely indicates a false positive of inhibition. Data from this procedure is reported as “Ki Ultra=‘numerical value’ (data reported is nanomolar)”

The mark [4] stands for this setting: Ki calculated from IC50 and KD of AF cyclic peptide Reagent B, 0.5 nM PCSK9, 960 nM AF cyclic peptide, read-out: Alexa FRET Plus TR-FRET.
[5] abbreviates: Ki Ultra, calculated from IC50 and KD of AF cyclic peptide, 0.5 nM PCSK9, 960 nM AF cyclic peptide, read-out: Alexa FRET Ultra TR-FRET.

Bounds are passed on as bounds.

T1 sequence (Q8NBP7 153-692): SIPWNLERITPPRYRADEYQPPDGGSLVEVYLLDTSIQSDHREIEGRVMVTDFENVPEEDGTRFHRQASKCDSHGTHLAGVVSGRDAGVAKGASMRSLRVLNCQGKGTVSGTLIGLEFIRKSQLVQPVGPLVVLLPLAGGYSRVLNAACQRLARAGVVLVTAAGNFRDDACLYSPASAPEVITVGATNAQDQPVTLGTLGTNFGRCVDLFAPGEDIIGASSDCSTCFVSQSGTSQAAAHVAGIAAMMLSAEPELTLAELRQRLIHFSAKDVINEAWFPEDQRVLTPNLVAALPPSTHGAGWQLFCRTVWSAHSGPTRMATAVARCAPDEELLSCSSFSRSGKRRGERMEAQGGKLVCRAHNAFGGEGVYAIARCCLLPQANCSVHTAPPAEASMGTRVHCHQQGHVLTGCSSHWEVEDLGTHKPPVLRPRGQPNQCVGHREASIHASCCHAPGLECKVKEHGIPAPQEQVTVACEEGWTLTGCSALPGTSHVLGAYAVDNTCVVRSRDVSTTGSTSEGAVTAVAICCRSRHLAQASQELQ

With `COc1ccc(C[C@@H]2NC(=O)[C@H]([C@@H](C)O)NC(=O)[C@@H]3[C@@H]4CCN3C(=O)[C@@H]3Cc5cn(c6ccc(F)cc56)CCCCCCN(Cc5ccc(cc5)CCNC(=O)[C@]5(C)CCCN5C2=O)C(=O)CCC(=O)N[C@@H](C)C(=O)N[C@H](CNC(=O)COCCOCCNC(=O)COCCOCCNC(=O)CC[C@H](NC(=O)CCCCC[N+](C)(C)CCNC(=O)CCCCCCCCCCCCCCCCC(=O)O)C(=O)O)C(=O)N[C@@H](Cc2cccc(c2)CNC(=O)CO4)C(=O)N3)cc1` [Ex-5], the values for the Ki on PCSK9 [1], on PCSK9 [2] and on PCSK9 [3] were < 1260 pM, < 6 pM and 7 pM, respectively.

Turning to `COc1ccc(C[C@@H]2NC(=O)[C@H]([C@@H](C)O)NC(=O)[C@@H]3[C@@H]4CCN3C(=O)[C@@H]3Cc5cn(c6ccc(F)cc56)CCCCCCN(Cc5ccc(cc5)CCNC(=O)[C@]5(C)CCCN5C2=O)C(=O)CCC(=O)N[C@@H](C)C(=O)N[C@H](CNC(=O)COCCOCCNC(=O)CCCCC[N+](C)(C)CCNC(=O)COCCOCCNC(=O)COCCOCCNC(=O)CC[C@H](NC(=O)CCCCCCCCCCCCCCCCC(=O)O)C(=O)O)C(=O)N[C@@H](Cc2cccc(c2)CNC(=O)CO4)C(=O)N3)cc1` [Ex-6], the Ki at PCSK9 [1] is < 1260 pM; at PCSK9 [2] it was 9 pM; at PCSK9 [3] it was 12 pM.

Turning to `COc1ccc(C[C@@H]2NC(=O)[C@H]([C@@H](C)O)NC(=O)[C@@H]3[C@@H]4CCN3C(=O)[C@@H]3Cc5cn(c6ccc(F)cc56)CCCCCCN(Cc5ccc(cc5)CCNC(=O)[C@]5(C)CCCN5C2=O)C(=O)CCC(=O)N[C@@H](C)C(=O)N[C@H](CNC(=O)CCOCCOCC[N+](C)(C)CCNC(=O)CC[C@H](NC(=O)CCCCCCCCCCCCCCCCC(=O)O)C(=O)O)C(=O)N[C@@H](Cc2cccc(c2)CNC(=O)CO4)C(=O)N3)cc1` [Ex-7], the figures for the Ki at PCSK9 [1], on PCSK9 [2] and on PCSK9 [3] were < 1260 pM, 8 pM and 13 pM, respectively.

With `COc1ccc(C[C@@H]2NC(=O)[C@H]([C@@H](C)O)NC(=O)[C@@H]3[C@@H]4CCN3C(=O)[C@@H]3Cc5cn(c6ccc(F)cc56)CCCCCCN(Cc5ccc(cc5)CCNC(=O)[C@]5(C)CCCN5C2=O)C(=O)CCC(=O)N[C@@H](C)C(=O)N[C@H](CNC(=O)CC[C@H](NC(=O)CCOCCOCC[N+](C)(C)CCNC(=O)COCCOCCNC(=O)COCCOCCNC(=O)CC[C@H](NC(=O)CCCCCCCCCCCCCCCCC(=O)O)C(=O)O)C(=O)O)C(=O)N[C@@H](Cc2cccc(c2)CNC(=O)CO4)C(=O)N3)cc1` [Ex-8], the Ki was < 1260 pM at PCSK9 [1], 16 pM on PCSK9 [2] and 8 pM at PCSK9 [3].

Take `COc1ccc(C[C@@H]2NC(=O)[C@H]([C@@H](C)O)NC(=O)[C@@H]3[C@@H]4CCN3C(=O)[C@@H]3Cc5cn(c6ccc(F)cc56)CCCCCCN(Cc5ccc(cc5)CCNC(=O)[C@]5(C)CCCN5C2=O)C(=O)CCC(=O)N[C@@H](C)C(=O)N[C@H](CNC(=O)COCCOCCNC(=O)COCCOCCNC(=O)CC[C@H](NC(=O)CC[C@H](NC(=O)CCOCCOCC[N+](C)(C)CCNC(=O)CCCCCCCCCCCCCCCCC(=O)O)C(=O)O)C(=O)O)C(=O)N[C@@H](Cc2cccc(c2)CNC(=O)CO4)C(=O)N3)cc1` [Ex-9]: the figures for the Ki on PCSK9 [1], on PCSK9 [2] and at PCSK9 [3] were < 1260 pM, < 6 pM and 7 pM, respectively.

As to `COc1ccc(C[C@@H]2NC(=O)[C@H]([C@@H](C)O)NC(=O)[C@@H]3[C@@H]4CCN3C(=O)[C@@H]3Cc5cn(c6ccc(F)cc56)CCCCCCN(Cc5ccc(cc5)CCNC(=O)[C@]5(C)CCCN5C2=O)C(=O)CCC(=O)N[C@@H](C)C(=O)N[C@H](CNC(=O)CCOCCOCC[N+](C)(C)CCNC(=O)COCCOCCNC(=O)COCCOCCNC(=O)CC[C@H](NC(=O)CC[C@H](NC(=O)CCCCCCCCCCCCCCCCC(=O)O)C(=O)O)C(=O)O)C(=O)N[C@@H](Cc2cccc(c2)CNC(=O)CO4)C(=O)N3)cc1` [Ex-10], the figures for the Ki at PCSK9 [1], on PCSK9 [2] and at PCSK9 [3] were < 1260 pM, 8 pM and 6 pM, respectively.

Regarding `COc1ccc(C[C@@H]2NC(=O)[C@H]([C@@H](C)O)NC(=O)[C@@H]3[C@@H]4CCN3C(=O)[C@@H]3Cc5cn(c6ccc(F)cc56)CCCCCCN(Cc5ccc(cc5)CCNC(=O)[C@]5(C)CCCN5C2=O)C(=O)CCC(=O)N[C@@H](C)C(=O)N[C@H](CNC(=O)CCOCCOCC[N+](C)(C)CCNC(=O)CCOCCOCC[N+](C)(C)CCNC(=O)COCCOCCNC(=O)COCCOCCNC(=O)CC[C@H](NC(=O)CC[C@H](NC(=O)CCCCCCCCCCCCCCC(=O)O)C(=O)O)C(=O)O)C(=O)N[C@@H](Cc2cccc(c2)CNC(=O)CO4)C(=O)N3)cc1` [Ex-11], the Ki is < 1260 pM on PCSK9 [1], 7 pM at PCSK9 [2] (setting [4]) and 6 pM on PCSK9 [3] (setting [5]).

`COC(=O)CCCCCCCCCCCCCCCCC(=O)N[C@@H](CCC(=O)NCCOCCOCC(=O)NCCOCCOCC(=O)NCC[N+](C)(C)CCCCCC(=O)NC[C@H]1NC(=O)[C@H](C)NC(=O)CCC(=O)N2CCCCCCn3cc(c4cc(F)ccc43)C[C@@H]3NC(=O)[C@H](Cc4cccc(c4)CNC(=O)CO[C@H]4CCN(C3=O)[C@@H]4C(=O)N[C@@H]([C@@H](C)O)C(=O)N[C@@H](Cc3ccc(OC)cc3)C(=O)N3CCC[C@@]3(C)C(=O)NCCc3ccc(cc3)C2)NC1=O)C(=O)OC` [Ex-12]: the Ki on PCSK9 [1] is < 1260 pM; on PCSK9 [2] (setting [4]) it was 14 pM; at PCSK9 [3] (setting [5]), 7 pM.

As for `COc1ccc(C[C@@H]2NC(=O)[C@H]([C@@H](C)O)NC(=O)[C@@H]3[C@@H]4CCN3C(=O)[C@@H]3Cc5cn(c6ccc(F)cc56)CCCCCCN(Cc5ccc(cc5)CCNC(=O)[C@]5(C)CCCN5C2=O)C(=O)CCC(=O)N[C@@H](C)C(=O)N[C@H](CNC(=O)COCCOCC[N+](C)(C)CCOCCNC(=O)COCCOCCNC(=O)COCCOCCNC(=O)CC[C@H](NC(=O)CC[C@H](NC(=O)CCCCCCCCCCCCCCCCC(=O)O)C(=O)O)C(=O)O)C(=O)N[C@@H](Cc2cccc(c2)CNC(=O)CO4)C(=O)N3)cc1` [Ex-13], the Ki at PCSK9 [1] was < 1260 pM; at PCSK9 [2] (setting [4]), < 6 pM; on PCSK9 [3] (setting [5]) it was 3 pM.

Regarding `COc1ccc(C[C@@H]2NC(=O)[C@H]([C@@H](C)O)NC(=O)[C@@H]3[C@@H]4CCN3C(=O)[C@@H]3Cc5cn(c6ccc(F)cc56)CCCCCCN(Cc5ccc(cc5)CCNC(=O)[C@]5(C)CCCN5C2=O)C(=O)CCC(=O)N[C@@H](C)C(=O)N[C@H](CNC(=O)CCC[N+](C)(C)CCNC(=O)COCCOCCNC(=O)CC[C@H](NC(=O)CC[C@H](NC(=O)CCCCCCCCCCCCCCCCC(=O)O)C(=O)O)C(=O)O)C(=O)N[C@@H](Cc2cccc(c2)CNC(=O)CO4)C(=O)N3)cc1` [Ex-14], the Ki was < 1260 pM at PCSK9 [1], < 6 pM at PCSK9 [2] and 5 pM at PCSK9 [3].

As for `COc1ccc(C[C@@H]2NC(=O)[C@H]([C@@H](C)O)NC(=O)[C@@H]3[C@@H]4CCN3C(=O)[C@@H]3Cc5cn(c6ccc(F)cc56)CCCCCCN(Cc5ccc(cc5)CCNC(=O)[C@]5(C)CCCN5C2=O)C(=O)CCC(=O)N[C@@H](C)C(=O)N[C@H](CNC(=O)CCOCCOCC[N+](C)(C)CCNC(=O)COCCOCCNC(=O)COCCOCCNC(=O)C[C@H](NC(=O)CCCCCCCCCCCCCCCCC(=O)O)C(=O)O)C(=O)N[C@@H](Cc2cccc(c2)CNC(=O)CO4)C(=O)N3)cc1` [Ex-15], the Ki was < 1260 pM on PCSK9 [1], < 6 pM at PCSK9 [2] and 5 pM at PCSK9 [3].

`COc1ccc(C[C@@H]2NC(=O)[C@H]([C@@H](C)O)NC(=O)[C@@H]3[C@@H]4CCN3C(=O)[C@@H]3Cc5cn(c6ccc(F)cc56)CCCCCCN(Cc5ccc(cc5)CCNC(=O)[C@]5(C)CCCN5C2=O)C(=O)CCC(=O)N[C@@H](C)C(=O)N[C@H](CNC(=O)CCOCCOCC[N+](C)(C)CCNC(=O)COCCOCCNC(=O)COCCOCCNC(=O)CC(CC(=O)O)NC(=O)CC[C@H](NC(=O)CCCCCCCCCCCCCCCCC(=O)O)C(=O)O)C(=O)N[C@@H](Cc2cccc(c2)CNC(=O)CO4)C(=O)N3)cc1` (stereo partly drawn) [Ex-16]: the Ki was < 1260 pM on PCSK9 [1], 14 pM on PCSK9 [2] and 8 pM on PCSK9 [3].

As to `COc1ccc(C[C@@H]2NC(=O)[C@H]([C@@H](C)O)NC(=O)[C@@H]3[C@@H]4CCN3C(=O)[C@@H]3Cc5cn(c6ccc(F)cc56)CCCCCCN(Cc5ccc(cc5)CCNC(=O)[C@]5(C)CCCN5C2=O)C(=O)CCC(=O)N[C@@H](C)C(=O)N[C@H](CN(CCC[N+](C)(C)C)C(=O)COCCOCCNC(=O)COCCOCCNC(=O)CC[C@H](NC(=O)CCCCCCCCCCCCCCCCC(=O)O)C(=O)O)C(=O)N[C@@H](Cc2cccc(c2)CNC(=O)CO4)C(=O)N3)cc1` [Ex-17], the Ki at PCSK9 [1] is < 1260 pM; on PCSK9 [2] (setting [4]), 16 pM; at PCSK9 [3] (setting [5]), 18 pM.
